Each structure is given as a SMILES string. Non-standard residues stand in square brackets, D forms with d. Residues, ends and D or L forms follow the SMILES beside them. Dip = N[C@H](C(=O)O)C(c1ccccc1)c1ccccc1

One assay relates to K5627/Gleevec. The format is cell-based, human. As to conditions: resistant. The protocol: Tumor cells were grown as adherent monolayers or as suspensions at 37° C. in a humidified atmosphere (5% CO2, 95% air). The culture medium was RPMI 1640 containing 2 mM L-glutamine (Lonza, Belgium) and supplemented with 10% fetal bovine serum (FBS, Lonza). For experimental use, the adherent cells were detached from the culture flask by a 5-minute treatment with trypsin-versene (Lonza), diluted in Hanks' medium without calcium or magnesium (Lonza) and neutralized by addition of complete culture medium. Cells were counted in a hemocytometer and their viability was assessed by 0.25% trypan blue exclusion. […]
Three independent experiments were performed, each concentration being tested in quadruplicate. […] At the end of treatments, the cytotoxic activity was evaluated by a MTS assay (see § 3.3). […]
At the end of the cells treatment, 40 μl of a 0.22 μm filtered freshly combined solution of MTS (20 ml at 2 mg/ml, Ref G1111, Batch 235897, Exp 03/2009, Promega, Charbonnières, France) and PMS (1 ml at 0.92 mg/ml, Ref P9625, Batch 065K0961, Sigma) in Dulbecco's Phosphate Buffered Saline (DPBS, Ref 17-513Q, Batch 6MB0152, Cambrex), were added in each well. […] Absorbency (OD) were measured at 490 nm in each well using VICTOR^3TM 1420 multilabeled counter (Wallac, PerkinElmer, Courtaboeuf, France). […]

The test system of assay [1] is murine A20 B cell lymphoma cells. The assay is described as follows: Re-challenge with A20 cells in mice with complete tumour regression. The class given is in vivo. The protocol:
Methods: Female Balb-c mice (n=4), previously treated with LTX-315, 1 mg) or (n=9); previously treated with LTX-315 0.5 or 1 mg) were re-inoculated (s.c. in the abdominal area) with either murine A20 B cell lymphoma cells or CT26WT colon carcinoma cells (5 million) respectively 6 weeks following initial treatment with LTX-315. Tumour growth was monitored for up to 36 days following re-inoculation.

The test system of a further assay is A375 cells. The assay is described as follows: Confocal microscopy, fluorescence-labeled peptide internalization. The class given is cell-based, human. As to conditions: 1.5 and 3 μM. As for the experimental part: Fixed cells, fluorescence-labeled peptide-Subconfluential A375 cells were seeded at 8,000 cells/well as above, and transfected on the second day using the Lipofectamine LTX with Plus transfection reagents (Invitrogen) following the manufacturer's protocol. The mitochondria were labeled using the pDsRed2-Mito, and the nucleus was labeled using the GFP-Histon2B plasmid (Imaging Platform, University of Tromsø). A day after transfection, cells were washed twice with serum-free RPMI, and treated at different concentration and incubation periods with LTX-315 Pacific Blue or LTX-328 Pacific Blue.
Control cells were treated with unlabeled LTX-315 and also with serum-free RPMI only. After incubation, cells were fixed with 4% paraformaldehyde in PBS, and the wells were covered with Prolong Gold antifade (Invitrogen). Cells were further analyzed by use of a Leica TCS SP5 confocal microscope, with a […] objective. Pacific Blue, GFP and Ds Red were excited using UV, with 488 and 561 lasers, and fluorescence channels were sequentially detected using the following band passes: UV: 420-480 nm (with attenuation), 488: 501-550 nm and 561: 576-676 nm.

By IC50 is commonly meant the midpoint of a concentration-inhibition curve. Read a high IC50 as weaker potency. In the assay with K5627/Gleevec, `NCCCC[C@H](NC(=O)[C@@H](NC(=O)[C@H](Cc1c[nH]c2ccccc12)NC(=O)[C@H](CCCCN)NC(=O)[C@H](CCCCN)NC(=O)[C@H](Cc1c[nH]c2ccccc12)NC(=O)[C@H](Cc1c[nH]c2ccccc12)NC(=O)[C@H](CCCCN)NC(=O)[C@@H](N)CCCCN)C(c1ccccc1)c1ccccc1)C(N)=O` [LTX-315, K-K-W-W-K-K-W-Dip-K-NH2] (H-KKWWKKW[Dip]K-NH2) yielded an IC50 of 2980 nM. In assay [1] (4 mice previously treated with LTX-315 1 mg, re-inoculated 6 weeks later, P<0.006), the “tumour growth after re-inoculation compared with control animals” value is “Significant inhibition”. Moreover, the “mice with complete tumour regression after re-inoculation” value in assay [1] (of 4 re-inoculated mice) amounted to 3 mice. Besides, in assay [1] (of 4 re-inoculated mice, 3 weeks later), the “animals with relapse after re-inoculation” value came to 1 animal. Also, the “internalization of Pacific Blue-labeled peptide” value in the assay with A375 cells was “showed an accumulation around the mitochondria after 30 minutes of incubation but was not detected in the cell nucleus”.

For the origin of these results see patent US12239686B2, “Immune checkpoint inhibitor combinations” (LYTIX BIOPHARMA AS, priority 2014, dated 2025).
